Laboratory results published in patent publication US11298348B2, “Combination treatment of sarcoglycanopathies” (INSERM (INSTITUT NATIONAL DE LA SANTE ET DE LA RECHERCHE …, priority 2018, dated 2022).

How the values were obtained:
[1] = target: T1, R77C-α-SG (Homo sapiens, UniProt Q16586, R77C); experiment: Western blot and densitometry of α-SG content in βγδ-cells transiently expressing R77C-α-SG; format: cell-based; conditions: single corrector, C17 10 μM or C4 5 μM, 24 hours
T1 construct: The full-length cDNA encoding human α-sarcoglycan cloned in the pcDNA3 mammalian expression vector; expressed in transfected cells; host or cells: βγδ-cells (HER911 cells stably expressing β-, γ- and δ-sarcoglycan)
T1 sequence (Q16586 24-387 R77C): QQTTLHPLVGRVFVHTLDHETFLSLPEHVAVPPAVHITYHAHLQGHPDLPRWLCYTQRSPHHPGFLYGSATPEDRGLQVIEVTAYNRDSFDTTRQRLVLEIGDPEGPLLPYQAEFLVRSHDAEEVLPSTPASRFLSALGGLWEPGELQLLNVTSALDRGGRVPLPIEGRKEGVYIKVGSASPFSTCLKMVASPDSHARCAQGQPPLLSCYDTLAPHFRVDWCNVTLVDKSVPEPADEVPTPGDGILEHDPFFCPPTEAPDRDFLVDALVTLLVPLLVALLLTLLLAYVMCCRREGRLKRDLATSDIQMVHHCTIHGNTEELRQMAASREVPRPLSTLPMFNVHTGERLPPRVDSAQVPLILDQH
Protocol: (§1) For transient expression, HEK 293 cells were seeded at 50,000 cells/cm2 and transfected the day after with Transit293 (MirusBio) according to manufacturer's instruction. Twenty-four hours after transfection, medium was replaced with DMEM supplemented with 2% FBS containing the indicated concentration of correctors (dissolved in DMSO) or with DMSO alone (final DMSO concentration 0.1%). HER911 or βγδ-cells cells were seeded at 50,000 cells/cm2 and transfected the day after with 9 μl of Fugene HD Transfection Reagent (E2312 from Promega) and 3 μg of plasmid coding for wild type or mutated α-SG. MG132 was added 8 hours before cell lysis, CFTR correctors were added 24 hours before cell lysis or IF assay (transfected HEK293, V247M cells, HER911 and βγδ-cells) and 24-96 hours before myotubes lysis, treatment with CHX or IF assay.
After treatments, cells were washed twice with ice cold PBS and lysed with 5% sodium deoxycholate supplemented with complete protease inhibitor (Sigma-Aldrich).
Protein lysates were quantified by the bicinchoninic-acid protein assay kit (Thermo Scientific), according to manufacturer's instructions. […] After 1-hour incubation with donkey anti-rabbit IRDye680 and anti-mouse IRDye800 antibodies (EuroBio) at room temperature, proteins were detected by fluorescence in an Odissey imaging system (Li-Cor) following the manufacturer's instructions. […]

[2] = target: T1, R77C-α-SG; experiment: Immunofluorescence of membrane α-SG in intact βγδ-cells expressing R77C-α-SG (confocal, ImageXpress); format: cell-based; conditions: single corrector, 24 hours
Protocol: as §1
Immunofluorescence-confocal analyses were performed either in intact cells (not permeabilized) or in permeabilized cells. For the former condition, cells, grown on polylysine-treated glasses, at the end of treatments were incubated for 30 minutes at 4° C., then gently washed twice with ice-cold PBS and incubated with primary antibodies for 5 hours at 4° C. […]
Quantification of the mean fluorescence intensity of membrane staining of […] transfected with R77C-α-SG was performed by using ImageXpress microscope system (Molecular Devices). […]

For `COc1ccc(Cl)cc1Nc1nc(-c2sc(NC(=O)C(C)(C)C)nc2C)cs1` [C17, N-(2-(5-chloro-2-methoxyphenylamino)-4′-methyl-4,5′-bithiazol-2′-yl)pivalamide], the R77C-α-SG protein content [1] was “three to four-fold increase” and the “localization of rescued R77C-α-SG at the plasma membrane (confocal IF, not-permeabilized cells)” value [2] was “intense cell-surface staining”.
`COc1ccc(Cl)cc1Nc1nc(-c2sc(NC(=O)c3ccccc3)nc2C)cs1` [C4, N-[2-(5-Chloro-2-methoxy-phenylamino)-4′-methyl-[4,5′]bithiazolyl-2′-yl]-benzamide] was tested, and the R77C-α-SG protein content [1] was “three to four-fold increase” and the “localization of rescued R77C-α-SG at the plasma membrane (confocal IF, not-permeabilized cells)” value [2] was “intense cell-surface staining”.
